{"source": "paper PMC3542985", "about": "(The Journal of neuroscience : the official journal of the …, 2013)", "key": {"[1]": {"biological_target": "T1, Torpedo nAChR (Tetronarce californica, UniProt P02710+P02712+P02714+P02718)", "T1 sequence (P02718 22-522)": "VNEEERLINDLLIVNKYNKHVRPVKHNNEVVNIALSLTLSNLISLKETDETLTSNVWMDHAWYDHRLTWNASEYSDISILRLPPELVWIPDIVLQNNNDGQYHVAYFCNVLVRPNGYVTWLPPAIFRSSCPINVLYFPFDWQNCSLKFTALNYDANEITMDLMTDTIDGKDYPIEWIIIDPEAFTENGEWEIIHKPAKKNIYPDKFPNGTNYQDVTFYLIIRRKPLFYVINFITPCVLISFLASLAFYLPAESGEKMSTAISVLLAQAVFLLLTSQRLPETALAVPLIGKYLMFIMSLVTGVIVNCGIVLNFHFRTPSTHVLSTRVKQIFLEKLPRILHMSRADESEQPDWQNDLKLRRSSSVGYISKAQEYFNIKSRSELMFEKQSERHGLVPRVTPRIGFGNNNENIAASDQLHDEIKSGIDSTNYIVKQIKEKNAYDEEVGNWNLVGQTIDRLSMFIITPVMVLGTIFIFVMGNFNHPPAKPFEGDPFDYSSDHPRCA", "T1 sequence (P02714 18-506)": "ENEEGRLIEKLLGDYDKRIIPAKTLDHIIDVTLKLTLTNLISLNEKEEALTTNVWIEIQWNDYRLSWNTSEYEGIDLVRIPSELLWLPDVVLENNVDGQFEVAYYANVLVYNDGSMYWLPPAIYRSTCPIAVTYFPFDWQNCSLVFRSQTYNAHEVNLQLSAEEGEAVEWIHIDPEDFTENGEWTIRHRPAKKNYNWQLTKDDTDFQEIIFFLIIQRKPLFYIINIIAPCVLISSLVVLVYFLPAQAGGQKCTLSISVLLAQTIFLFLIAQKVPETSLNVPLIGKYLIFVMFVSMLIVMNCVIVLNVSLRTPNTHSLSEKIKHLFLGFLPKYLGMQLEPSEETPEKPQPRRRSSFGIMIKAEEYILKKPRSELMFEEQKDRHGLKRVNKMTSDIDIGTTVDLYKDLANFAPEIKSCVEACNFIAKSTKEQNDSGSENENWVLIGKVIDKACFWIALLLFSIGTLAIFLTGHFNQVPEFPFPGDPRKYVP", "T1 sequence (P02712 25-493)": "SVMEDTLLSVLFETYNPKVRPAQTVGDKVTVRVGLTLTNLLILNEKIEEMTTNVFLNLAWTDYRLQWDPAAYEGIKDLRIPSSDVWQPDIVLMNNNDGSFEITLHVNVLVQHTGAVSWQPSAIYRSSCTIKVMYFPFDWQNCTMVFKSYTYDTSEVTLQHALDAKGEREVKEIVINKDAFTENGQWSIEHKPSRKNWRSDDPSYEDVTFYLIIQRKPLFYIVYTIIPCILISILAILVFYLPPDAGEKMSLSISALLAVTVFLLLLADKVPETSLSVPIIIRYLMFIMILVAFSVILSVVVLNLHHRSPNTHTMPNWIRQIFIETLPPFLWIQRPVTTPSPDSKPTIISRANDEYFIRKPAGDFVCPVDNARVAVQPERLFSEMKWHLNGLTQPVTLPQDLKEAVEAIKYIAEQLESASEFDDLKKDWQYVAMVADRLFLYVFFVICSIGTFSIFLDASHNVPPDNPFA", "T1 sequence (P02710 25-461)": "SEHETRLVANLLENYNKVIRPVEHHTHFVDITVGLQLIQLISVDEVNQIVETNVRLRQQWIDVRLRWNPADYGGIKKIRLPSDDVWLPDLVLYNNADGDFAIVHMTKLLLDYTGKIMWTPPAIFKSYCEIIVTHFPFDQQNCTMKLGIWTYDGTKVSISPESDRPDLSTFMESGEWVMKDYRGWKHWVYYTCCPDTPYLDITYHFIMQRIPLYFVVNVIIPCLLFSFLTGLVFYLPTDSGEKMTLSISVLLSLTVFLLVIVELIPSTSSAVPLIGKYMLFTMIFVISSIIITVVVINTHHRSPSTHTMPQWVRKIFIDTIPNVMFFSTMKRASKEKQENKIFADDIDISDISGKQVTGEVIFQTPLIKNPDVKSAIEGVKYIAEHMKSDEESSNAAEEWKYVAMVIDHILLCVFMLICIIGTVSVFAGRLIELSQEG", "experiment": "biochemical", "type": "binding"}, "[2]": {"biological_target": "T2, Na^+/K^+-ATPase α subunit (Tetronarce californica, UniProt P05025)", "T2 sequence (P05029 whole entry, other chains not shown)": "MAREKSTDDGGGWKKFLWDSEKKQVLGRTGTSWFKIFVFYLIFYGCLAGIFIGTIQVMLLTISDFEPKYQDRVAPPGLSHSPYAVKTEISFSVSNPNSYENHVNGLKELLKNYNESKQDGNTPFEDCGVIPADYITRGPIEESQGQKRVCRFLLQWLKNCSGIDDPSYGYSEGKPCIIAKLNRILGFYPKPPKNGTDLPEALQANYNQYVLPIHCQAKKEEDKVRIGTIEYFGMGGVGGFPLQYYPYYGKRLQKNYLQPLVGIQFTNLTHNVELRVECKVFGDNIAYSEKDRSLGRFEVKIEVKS", "type": "binding, Torpedo californica"}, "[3]": {"biological_target": "T1, Torpedo nAChR", "type": "binding"}, "[4]": {"biological_target": "T1, Torpedo nAChR", "experiment": "equilibrium binding of the ion channel blocker [^3H]PCP"}, "[5]": {"biological_target": "T2, Na^+/K^+-ATPase α subunit", "type": "binding, Torpedo californica", "remark": "listed apart in the source"}, "[6]": {"biological_target": "T1, Torpedo nAChR", "experiment": "equilibrium binding of [^3H]ACh", "settings": "IC50, inhibition of [^3H]ACh binding"}, "[7]": {"biological_target": "T1, Torpedo nAChR", "experiment": "equilibrium binding of the ion channel blocker [^3H]tetracaine"}, "[8]": {"settings": "Resting vs. Desensitized, −Carb (no other drugs)"}}, "note": "Values joined by “and” are separate entries in the source; they are usually repeats but may differ in a detail not shown here. Equal values may be shown once. Read-outs that look alike come from different tables or passages of the source."}
{"compound": "C[N+](C)(C)CCOC(N)=O.[Cl-]", "note": "[Carb, carbamylcholine]", "values": [{"measurement": "alteration of [^3H]physostigmine photoincorporation in nAChR β subunit", "setting": "[1]", "result": "< 5", "unit": "%"}, {"measurement": "change of efficiency of [^3H]physostigmine photolabeling at δTyr-439", "setting": "[1]", "result": "< 20", "unit": "%"}, {"measurement": "effect on [^3H]physostigmine photolabeling of γTyr-105", "setting": "[1]", "result": "enhanced"}, {"measurement": "effect on efficiency of [^3H]physostigmine photolabeling of δTyr-212", "setting": "[1]", "result": "doubled"}, {"measurement": "increase of [^3H]physostigmine photolabeling of nAChR δ subunit", "setting": "[1]", "result": "~ 10%"}, {"measurement": "inhibition of [^3H]physostigmine photolabeling of αTyr-93", "setting": "[1]", "result": "> 90", "unit": "%"}, {"measurement": "inhibition of [^3H]physostigmine photolabeling of αTyr-190, αCys-192 and αTyr-198", "setting": "[1]", "result": "> 85", "unit": "%"}, {"measurement": "inhibition of [^3H]physostigmine photolabeling of αV8-20 fragment", "setting": "[1]", "result": "> 75", "unit": "%"}, {"measurement": "inhibition of [^3H]physostigmine photolabeling of γTyr-111 and γTyr-117", "setting": "[1]", "result": "50–60%"}, {"measurement": "reduction of [^3H]physostigmine photoincorporation into nAChR α subunit", "setting": "[1]", "result": 40, "unit": "%"}, {"measurement": "reduction of [^3H]physostigmine photoincorporation into nAChR γ subunit", "setting": "[1]", "result": 10, "unit": "%"}, {"measurement": "alteration of [^3H]physostigmine photoincorporation in Na^+/K^+-ATPase α subunit", "setting": "[2]", "result": "< 5", "unit": "%"}, {"measurement": "inhibition of [^3H]galanthamine photolabeling in the α subunit", "setting": "[3]", "result": 80, "unit": "%"}, {"measurement": "inhibition of [^3H]galanthamine photolabeling of αTyr-190 and αTyr-198", "setting": "[3]", "result": "> 95", "unit": "%"}, {"measurement": "reduction of [^3H]galanthamine photolabeling in β subunit", "setting": "[3]", "result": "< 5", "unit": "%"}, {"measurement": "reduction of [^3H]galanthamine photolabeling in γ and δ subunits", "setting": "[3]", "result": "~ 25%"}]}
{"compound": "COc1ccc2c3c1O[C@H]1C[C@@H](O)C=C[C@@]31CCN(C)C2", "note": "[galanthamine]", "values": [{"measurement": "inhibition at 3000 µM", "setting": "[4]; read-out: inhibition of [^3H]PCP binding", "result": 20, "unit": "%"}, {"measurement": "change of efficiency of [^3H]physostigmine photolabeling at δTyr-439", "setting": "[1]", "result": "< 20", "unit": "%"}, {"measurement": "reduction of [^3H]physostigmine photoincorporation into the nAChR subunits", "setting": "[1]", "result": "to the same extent as 100 μM physostigmine"}, {"measurement": "inhibition at 300 µM", "setting": "[1]; read-out: inhibition of [^3H]physostigmine photolabeling of γTyr-105, γTyr-111 and γTyr-117", "result": "~75", "unit": "%"}, {"measurement": "inhibition at 300 µM", "setting": "[1]; read-out: inhibition of [^3H]physostigmine photolabeling of δTyr-212", "result": "~50", "unit": "%"}, {"measurement": "reduction of [^3H]galanthamine photolabeling of Na^+/K^+-ATPase α subunit", "setting": "[5]", "result": "< 5", "unit": "%"}, {"measurement": "IC50", "setting": "[6]", "result": "3000 µM and 2800 µM"}, {"measurement": "reduction of [^3H]galanthamine photolabeling of each nAChR subunit", "setting": "[3]", "result": "~ 25%"}, {"measurement": "inhibition at 3000 µM", "setting": "[7]; read-out: inhibition of [^3H]tetracaine binding", "result": 10, "unit": "%"}]}
{"compound": "CNC(=O)Oc1ccc2c(c1)[C@]1(C)CCN(C)[C@@H]1N2C", "note": "[physostigmine]", "values": [{"measurement": "IC50", "setting": "[4]; IC50, inhibition of [^3H]PCP binding", "result": "1000 µM and 900 µM"}, {"measurement": "decrease of [^3H]physostigmine photolabeling in the nAChR subunits", "setting": "[1]", "result": "25–40%"}, {"measurement": "decrease of [^3H]physostigmine photolabeling in Na^+/K^+-ATPase α subunit", "setting": "[2]", "result": "< 5", "unit": "%"}, {"measurement": "IC50", "setting": "[6]", "result": "> 10000", "unit": "µM"}, {"measurement": "IC50", "setting": "[7]", "result": 5000, "unit": "µM"}]}
{"compound": "[^3H]physostigmine", "values": [{"measurement": "efficiency of photolabeling at δTyr-439", "setting": "[1]", "result": 1, "unit": "cpm/pmol"}, {"measurement": "photolabeling, if it occurred, of αLys-125", "setting": "[1]", "result": "less than 0.2 cpm/pmol"}, {"measurement": "photolabeling, if it occurred, of αTyr-127", "setting": "[1]", "result": "< 0.05", "unit": "cpm/pmol"}, {"measurement": "photolabeling of δTyr-172", "setting": "[1]; +Carb 1 mM", "result": 4.9, "unit": "cpm/pmol"}, {"measurement": "photolabeling of δTyr-172", "setting": "[1]; +αBgTx 8 μM", "result": 1.6, "unit": "cpm/pmol"}, {"measurement": "photolabeling of δTyr-172", "setting": "[1]; Carb-independent", "result": 4, "unit": "cpm/pmol"}, {"measurement": "photoincorporation into αY190 (Site IV, core aromatics)", "setting": "[1]; [8]", "result": 10, "unit": "cpm/pmol"}, {"measurement": "photoincorporation into αY198 (Site IV, core aromatics)", "setting": "[1]; [8]", "result": 20, "unit": "cpm/pmol"}, {"measurement": "photoincorporation into γY111 (Site I)", "setting": "[1]; [8]", "result": 9, "unit": "cpm/pmol"}, {"measurement": "photoincorporation into γY117 (Site I)", "setting": "[1]; [8]", "result": 2, "unit": "cpm/pmol"}, {"measurement": "photolabeling of αCys-192", "setting": "[1]; absence of other drugs", "result": 10, "unit": "cpm/pmol"}, {"measurement": "photolabeling of δTrp-57", "setting": "[1]; data not shown", "result": 0.8, "unit": "cpm/pmol"}, {"measurement": "photolabeling, if it occurred, of adjacent aromatic amino acids (δTrp-64, δTyr-65)", "setting": "[1]; data not shown", "result": "< 0.2", "unit": "cpm/pmol"}, {"measurement": "photolabeling of δTyr-172", "setting": "[1]; −Carb", "result": 3.4, "unit": "cpm/pmol"}, {"measurement": "photolabeling of δTyr-172", "setting": "[1]; −αBgTx", "result": 5, "unit": "cpm/pmol"}]}
{"compound": "α-bungarotoxin [α-BgTx]", "values": [{"measurement": "alteration of [^3H]physostigmine photoincorporation in nAChR β subunit", "setting": "[1]", "result": "< 5", "unit": "%"}, {"measurement": "change of efficiency of [^3H]physostigmine photolabeling at δTyr-439", "setting": "[1]", "result": "< 20", "unit": "%"}, {"measurement": "decrease of [^3H]physostigmine photolabeling of nAChR δ subunit", "setting": "[1]", "result": "~ 10%"}, {"measurement": "effect on [^3H]physostigmine photolabeling of γTyr-105", "setting": "[1]", "result": "unchanged"}, {"measurement": "inhibition of [^3H]physostigmine photolabeling of αTyr-190, αCys-192 and αTyr-198", "setting": "[1]", "result": "> 85", "unit": "%"}, {"measurement": "inhibition of [^3H]physostigmine photolabeling of αV8-20 fragment", "setting": "[1]", "result": "> 75", "unit": "%"}, {"measurement": "inhibition of [^3H]physostigmine photolabeling of γTyr-111 and γTyr-117", "setting": "[1]", "result": "50–60%"}, {"measurement": "reduction of [^3H]physostigmine photoincorporation into nAChR α subunit", "setting": "[1]", "result": 40, "unit": "%"}, {"measurement": "reduction of [^3H]physostigmine photoincorporation into nAChR γ subunit", "setting": "[1]", "result": 20, "unit": "%"}, {"measurement": "reduction of [^3H]physostigmine photolabeling of δTyr-172", "setting": "[1]", "result": 70, "unit": "%"}, {"measurement": "reduction of efficiency of [^3H]physostigmine photolabeling of δTyr-212", "setting": "[1]", "result": "~ 25%"}, {"measurement": "alteration of [^3H]physostigmine photoincorporation in Na^+/K^+-ATPase α subunit", "setting": "[2]", "result": "< 5", "unit": "%"}]}
